Measurements taken from PMC7884382, “A Phase 1 study of RO6870810, a novel bromodomain and extra-terminal protein inhibitor, in patients with NUT carcinoma, other solid tumours, or diffuse large B-cell lymphoma” (British Journal of Cancer, 2020).
Where two headings read alike, the source gives them in different places.

Description: Patients were considered evaluable for safety if they received ≥1 injection of the study drug. All adverse events (AEs) were graded per the National Cancer Institute’s Common Terminology Criteria for Adverse Events (CTCAE) version 4.03.
Grade ≤3 drug-related fever or skin or SC tissue disorders localised to the site of injection—including grade ≤3 rash, pruritus, skin induration or pain—were not considered DLTs.
Data for patients with NC and lymphoma were evaluated but not included in the MTD determination.

## Cc1sc2c(c1C)C(c1ccc(Cl)cc1)=N[C@@H](CC(=O)NCCCN1CCN(C)CC1)c1nnc(C)n1-2 [RO6870810]
DLBCL (n = 19)
  Death due to AE: 3 (15.8) n (%)
  Death due to treatment-related AE: 0 n (%)
NC (n = 8)
  Death due to AE: 3 (37.5) n (%)
  Death due to treatment-related AE: 0 n (%)
Solid tumours (n = 47)
  Death due to AE: 2 (4.3) n (%)
  Death due to treatment-related AE: 0 n (%)
All patients
  Treatment-related grade 5 AEs: No treatment-related grade 5 AEs occurred
human, in vivo
  Grade 3/4 treatment-related AE: anaemia: 8%
  Grade 3/4 treatment-related AE: fatigue: 10%
  Grade 3/4 treatment-related AE: hyperbilirubinemia: 5%
  Grade 3/4 treatment-related AE: thrombocytopenia: 10%
  Incidence of treatment-related thrombocytopenia: 12%
  Treatment-emergent AE: Abdominal pain: 13 (17.6) n (%)
  Treatment-emergent AE: Anemia: 20 (27.0) n (%)
  Treatment-emergent AE: Back pain: 13 (17.6) n (%)
  Treatment-emergent AE: Blood bilirubin increased: 14 (18.9) n (%)
  Treatment-emergent AE: Constipation: 14 (18.9) n (%)
  Treatment-emergent AE: Cough: 10 (13.5) n (%)
  Treatment-emergent AE: Decreased appetite: 38 (51.4) n (%)
  Treatment-emergent AE: Dehydration: 13 (17.6) n (%)
  Treatment-emergent AE: Diarrhea: 26 (35.1) n (%)
  Treatment-emergent AE: Dizziness: 10 (13.5) n (%)
  Treatment-emergent AE: Dry mouth: 11 (14.9) n (%)
  Treatment-emergent AE: Dysgeusia: 20 (27.0) n (%)
  Treatment-emergent AE: Dyspnea: 12 (16.2) n (%)
  Treatment-emergent AE: Fatigue: 43 (58.1) n (%)
  Treatment-emergent AE: Headache: 12 (16.2) n (%)
  Treatment-emergent AE: Hypomagnesaemia: 10 (13.5) n (%)
  Treatment-emergent AE: Injection site erythema: 26 (35.1) n (%)
  Treatment-emergent AE: Injection site induration: 21 (28.4) n (%)
  Treatment-emergent AE: Injection site pain: 25 (33.8) n (%)
  Treatment-emergent AE: Injection site pruritus: 15 (20.3) n (%)
  Treatment-emergent AE: Injection site reaction: 10 (13.5) n (%)
  Treatment-emergent AE: Injection site swelling: 10 (13.5) n (%)
  Treatment-emergent AE: Malaise: 16 (21.6) n (%)
  Treatment-emergent AE: Myalgia: 12 (16.2) n (%)
  Treatment-emergent AE: Nausea: 32 (43.2) n (%)
  Treatment-emergent AE: Thrombocytopenia: 10 (13.5) n (%)
  Treatment-emergent AE: Vomiting: 28 (37.8) n (%)
  Treatment-emergent AE: Weight decreased: 9 (12.2) n (%)
  Treatment-related AE of any grade: decreased appetite: 35%
  Treatment-related AE of any grade: fatigue: 42%
  Treatment-related AE of any grade: injection-site erythema: 35%
  Treatment-related AE of any grade: injection-site pain: 32%
  Treatment-related AE of any grade: nausea: 31%
  Treatment-related AE: Cardiomyopathy: 1 (1.4) n (%)
  Treatment-related AE: Cholestasis: 1 (1.4) n (%)
  Treatment-related AE: Dyspnoea: 1 (1.4) n (%)
  Treatment-related AE: Hepatic enzyme increased: 1 (1.4) n (%)
  Treatment-related AE: Neutropenia: 1 (1.4) n (%)
  Treatment-related AE: Peritoneal haemorrhage: 1 (1.4) n (%)
human, in vivo, 0.03 mg/kg
  Treatment-emergent AE: Abdominal pain: 1 (33.3) n (%)
  Treatment-emergent AE: Anemia: 0 n (%)
  Treatment-emergent AE: Back pain: 0 n (%)
  Treatment-emergent AE: Blood bilirubin increased: 0 n (%)
  Treatment-emergent AE: Constipation: 0 n (%)
  Treatment-emergent AE: Cough: 0 n (%)
  Treatment-emergent AE: Decreased appetite: 0 n (%)
  Treatment-emergent AE: Dehydration: 0 n (%)
  Treatment-emergent AE: Diarrhea: 1 (33.3) n (%)
  Treatment-emergent AE: Dizziness: 0 n (%)
  Treatment-emergent AE: Dry mouth: 0 n (%)
  Treatment-emergent AE: Dysgeusia: 0 n (%)
  Treatment-emergent AE: Dyspnea: 0 n (%)
  Treatment-emergent AE: Fatigue: 0 n (%)
  Treatment-emergent AE: Headache: 0 n (%)
  Treatment-emergent AE: Hypomagnesaemia: 1 (33.3) n (%)
  Treatment-emergent AE: Injection site erythema: 2 (66.7) n (%)
  Treatment-emergent AE: Injection site induration: 1 (33.3) n (%)
  Treatment-emergent AE: Injection site pain: 0 n (%)
  Treatment-emergent AE: Injection site pruritus: 3 (100) n (%)
  Treatment-emergent AE: Injection site reaction: 0 n (%)
  Treatment-emergent AE: Injection site swelling: 1 (33.3) n (%)
  Treatment-emergent AE: Malaise: 1 (33.3) n (%)
  Treatment-emergent AE: Myalgia: 1 (33.3) n (%)
  Treatment-emergent AE: Nausea: 1 (33.3) n (%)
  Treatment-emergent AE: Thrombocytopenia: 0 n (%)
  Treatment-emergent AE: Vomiting: 0 n (%)
human, in vivo, 0.06 mg/kg
  Treatment-emergent AE: Abdominal pain: 1 (33.3) n (%)
  Treatment-emergent AE: Anemia: 0 n (%)
  Treatment-emergent AE: Back pain: 0 n (%)
  Treatment-emergent AE: Blood bilirubin increased: 0 n (%)
  Treatment-emergent AE: Constipation: 1 (33.3%) n (%)
  Treatment-emergent AE: Cough: 0 n (%)
  Treatment-emergent AE: Decreased appetite: 0 n (%)
  Treatment-emergent AE: Dehydration: 0 n (%)
  Treatment-emergent AE: Diarrhea: 0 n (%)
  Treatment-emergent AE: Dizziness: 0 n (%)
  Treatment-emergent AE: Dry mouth: 0 n (%)
  Treatment-emergent AE: Dysgeusia: 0 n (%)
  Treatment-emergent AE: Dyspnea: 0 n (%)
  Treatment-emergent AE: Fatigue: 2 (66.7) n (%)
  Treatment-emergent AE: Headache: 0 n (%)
  Treatment-emergent AE: Hypomagnesaemia: 0 n (%)
  Treatment-emergent AE: Injection site erythema: 1 (33.3) n (%)
  Treatment-emergent AE: Injection site induration: 0 n (%)
  Treatment-emergent AE: Injection site pain: 1 (33.3) n (%)
  Treatment-emergent AE: Injection site pruritus: 1 (33.3) n (%)
  Treatment-emergent AE: Injection site reaction: 0 n (%)
  Treatment-emergent AE: Injection site swelling: 0 n (%)
  Treatment-emergent AE: Malaise: 1 (33.3) n (%)
  Treatment-emergent AE: Myalgia: 0 n (%)
  Treatment-emergent AE: Nausea: 0 n (%)
  Treatment-emergent AE: Thrombocytopenia: 0 n (%)
  Treatment-emergent AE: Vomiting: 0 n (%)
human, in vivo, 0.1 mg/kg
  Treatment-emergent AE: Abdominal pain: 1 (25.0) n (%)
  Treatment-emergent AE: Anemia: 2 (50.0) n (%)
  Treatment-emergent AE: Back pain: 2 (50.0) n (%)
  Treatment-emergent AE: Blood bilirubin increased: 1 (25.0) n (%)
  Treatment-emergent AE: Constipation: 3 (75.0) n (%)
  Treatment-emergent AE: Cough: 1 (25.0) n (%)
  Treatment-emergent AE: Decreased appetite: 4 (100) n (%)
  Treatment-emergent AE: Dehydration: 2 (50.0) n (%)
  Treatment-emergent AE: Diarrhea: 3 (75.0) n (%)
  Treatment-emergent AE: Dizziness: 2 (50.0) n (%)
  Treatment-emergent AE: Dry mouth: 1 (25.0) n (%)
  Treatment-emergent AE: Dysgeusia: 0 n (%)
  Treatment-emergent AE: Dyspnea: 1 (25.0) n (%)
  Treatment-emergent AE: Fatigue: 3 (75.0) n (%)
  Treatment-emergent AE: Headache: 1 (25.0) n (%)
  Treatment-emergent AE: Hypomagnesaemia: 0 n (%)
  Treatment-emergent AE: Injection site erythema: 2 (50.0) n (%)
  Treatment-emergent AE: Injection site induration: 3 (75.0) n (%)
  Treatment-emergent AE: Injection site pain: 1 (25.0) n (%)
  Treatment-emergent AE: Injection site pruritus: 0 n (%)
  Treatment-emergent AE: Injection site reaction: 0 n (%)
  Treatment-emergent AE: Injection site swelling: 1 (25.0) n (%)
  Treatment-emergent AE: Malaise: 1 (25.0) n (%)
  Treatment-emergent AE: Myalgia: 1 (25.0) n (%)
  Treatment-emergent AE: Nausea: 2 (50.0) n (%)
  Treatment-emergent AE: Thrombocytopenia: 0 n (%)
  Treatment-emergent AE: Vomiting: 4 (100) n (%)
human, in vivo, 0.2 mg/kg
  Treatment-emergent AE: Abdominal pain: 1 (25.0) n (%)
  Treatment-emergent AE: Anemia: 0 n (%)
  Treatment-emergent AE: Back pain: 1 (25.0) n (%)
  Treatment-emergent AE: Blood bilirubin increased: 1 (25.0) n (%)
  Treatment-emergent AE: Constipation: 1 (25.0) n (%)
  Treatment-emergent AE: Cough: 0 n (%)
  Treatment-emergent AE: Decreased appetite: 3 (75.0) n (%)
  Treatment-emergent AE: Dehydration: 0 n (%)
  Treatment-emergent AE: Diarrhea: 1 (25.0) n (%)
  Treatment-emergent AE: Dizziness: 1 (25.0) n (%)
  Treatment-emergent AE: Dry mouth: 1 (25.0) n (%)
  Treatment-emergent AE: Dysgeusia: 1 (25.0) n (%)
  Treatment-emergent AE: Dyspnea: 2 (50.0) n (%)
  Treatment-emergent AE: Fatigue: 2 (50.0) n (%)
  Treatment-emergent AE: Headache: 1 (25.0) n (%)
  Treatment-emergent AE: Hypomagnesaemia: 0 n (%)
  Treatment-emergent AE: Injection site erythema: 3 (75.0) n (%)
  Treatment-emergent AE: Injection site induration: 2 (50.0) n (%)
  Treatment-emergent AE: Injection site pain: 2 (50.0) n (%)
  Treatment-emergent AE: Injection site pruritus: 1 (25.0) n (%)
  Treatment-emergent AE: Injection site reaction: 0 n (%)
  Treatment-emergent AE: Injection site swelling: 2 (50.0) n (%)
  Treatment-emergent AE: Malaise: 1 (25.0) n (%)
  Treatment-emergent AE: Myalgia: 0 n (%)
  Treatment-emergent AE: Nausea: 2 (50.0) n (%)
  Treatment-emergent AE: Thrombocytopenia: 0 n (%)
  Treatment-emergent AE: Vomiting: 2 (50.0) n (%)
human, in vivo, 0.3 mg/kg
  Treatment-emergent AE: Abdominal pain: 1 (16.7) n (%)
  Treatment-emergent AE: Anemia: 2 (33.3) n (%)
  Treatment-emergent AE: Back pain: 0 n (%)
  Treatment-emergent AE: Blood bilirubin increased: 1 (16.7) n (%)
  Treatment-emergent AE: Constipation: 0 n (%)
  Treatment-emergent AE: Cough: 0 n (%)
  Treatment-emergent AE: Decreased appetite: 6 (100) n (%)
  Treatment-emergent AE: Dehydration: 2 (33.3) n (%)
  Treatment-emergent AE: Diarrhea: 2 (33.3) n (%)
  Treatment-emergent AE: Dizziness: 1 (16.7) n (%)
  Treatment-emergent AE: Dry mouth: 2 (33.3) n (%)
  Treatment-emergent AE: Dysgeusia: 1 (16.7) n (%)
  Treatment-emergent AE: Dyspnea: 0 n (%)
  Treatment-emergent AE: Fatigue: 2 (33.3) n (%)
  Treatment-emergent AE: Headache: 3 (50.0) n (%)
  Treatment-emergent AE: Hypomagnesaemia: 1 (16.7) n (%)
  Treatment-emergent AE: Injection site erythema: 3 (50.0) n (%)
  Treatment-emergent AE: Injection site induration: 2 (33.3) n (%)
  Treatment-emergent AE: Injection site pain: 2 (33.3) n (%)
  Treatment-emergent AE: Injection site pruritus: 2 (33.3) n (%)
  Treatment-emergent AE: Injection site reaction: 0 n (%)
  Treatment-emergent AE: Injection site swelling: 2 (33.3) n (%)
  Treatment-emergent AE: Malaise: 1 (16.7) n (%)
  Treatment-emergent AE: Myalgia: 3 (50.0) n (%)
  Treatment-emergent AE: Nausea: 3 (50.0) n (%)
  Treatment-emergent AE: Thrombocytopenia: 1 (16.7) n (%)
  Treatment-emergent AE: Vomiting: 2 (33.3) n (%)
human, in vivo, 0.65 mg/kg
  Treatment-emergent AE: Injection site swelling: 0 n (%)
human, in vivo, sc
  Recommended phase 2 dose: 0.65 mg/kg
In vivo
  DLTs due to thrombocytopenia: no DLTs due to thrombocytopenia
  Left ventricular ejection fraction after reduction: 45–50%
